Positions of bridges follow the written chain, without caps; N, C: chain ends. Residues, ends and D or L forms follow the SMILES beside them. *: point of attachment. 5FAM = O=C1OC2(c3ccc(O)cc3Oc3cc(O)ccc32)c2ccc(C(=O)*)cc21; DTPA = O=C(O)CN(CCN(CC(=O)O)CC(=O)O)CCN(CC(=O)O)CC(=O)*; Ahx = NCCCCCC(=O)O
Assays:
fibrinogen = target: T1, fibrinogen (Homo sapiens, UniProt P02671+P02675+P02679); assay: Fluorescence polarization, binding to fibrinogen; details: fluorescence anisotropy
T1 sequence (P02671 20-629 limits assumed): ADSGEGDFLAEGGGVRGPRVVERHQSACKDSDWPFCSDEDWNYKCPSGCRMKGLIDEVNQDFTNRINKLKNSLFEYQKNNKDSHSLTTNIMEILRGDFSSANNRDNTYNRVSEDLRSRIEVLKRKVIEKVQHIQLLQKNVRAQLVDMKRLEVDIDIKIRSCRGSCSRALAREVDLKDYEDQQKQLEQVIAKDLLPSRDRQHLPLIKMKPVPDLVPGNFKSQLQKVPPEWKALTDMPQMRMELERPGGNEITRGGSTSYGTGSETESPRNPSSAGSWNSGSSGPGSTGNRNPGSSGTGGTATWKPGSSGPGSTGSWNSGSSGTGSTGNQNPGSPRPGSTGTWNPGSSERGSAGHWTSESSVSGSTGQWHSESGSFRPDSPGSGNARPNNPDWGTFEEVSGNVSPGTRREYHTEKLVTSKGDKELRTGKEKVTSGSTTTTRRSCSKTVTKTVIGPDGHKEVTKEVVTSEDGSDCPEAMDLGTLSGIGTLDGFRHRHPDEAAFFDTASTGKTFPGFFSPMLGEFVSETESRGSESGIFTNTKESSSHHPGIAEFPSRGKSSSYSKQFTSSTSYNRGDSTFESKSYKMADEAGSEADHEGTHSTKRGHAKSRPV
T1 sequence (P02675 31-491): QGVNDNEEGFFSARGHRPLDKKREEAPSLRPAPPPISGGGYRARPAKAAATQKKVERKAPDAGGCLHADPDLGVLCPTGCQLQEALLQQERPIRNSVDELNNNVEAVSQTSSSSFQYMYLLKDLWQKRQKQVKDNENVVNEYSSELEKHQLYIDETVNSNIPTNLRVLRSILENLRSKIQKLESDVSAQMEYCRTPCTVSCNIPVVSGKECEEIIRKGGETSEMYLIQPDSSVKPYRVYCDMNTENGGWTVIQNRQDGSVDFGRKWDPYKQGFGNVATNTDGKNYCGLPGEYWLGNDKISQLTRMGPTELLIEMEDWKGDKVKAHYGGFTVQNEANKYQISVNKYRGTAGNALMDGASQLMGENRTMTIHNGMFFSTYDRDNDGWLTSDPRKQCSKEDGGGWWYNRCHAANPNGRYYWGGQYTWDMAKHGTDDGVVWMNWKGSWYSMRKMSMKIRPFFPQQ
T1 sequence (P02679 27-433 limits assumed): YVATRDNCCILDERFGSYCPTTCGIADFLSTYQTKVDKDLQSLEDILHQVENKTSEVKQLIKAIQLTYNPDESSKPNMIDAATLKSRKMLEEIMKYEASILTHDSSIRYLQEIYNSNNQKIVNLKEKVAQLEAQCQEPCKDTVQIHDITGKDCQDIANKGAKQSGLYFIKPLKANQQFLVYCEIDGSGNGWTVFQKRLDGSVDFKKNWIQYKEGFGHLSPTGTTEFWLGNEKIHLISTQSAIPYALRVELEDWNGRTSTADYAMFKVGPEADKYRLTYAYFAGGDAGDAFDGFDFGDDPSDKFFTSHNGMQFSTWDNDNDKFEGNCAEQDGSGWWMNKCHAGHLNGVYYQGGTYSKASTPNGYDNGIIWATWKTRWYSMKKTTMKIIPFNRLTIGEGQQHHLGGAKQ

fibrin [1] = target: T2, fibrin (Homo sapiens, UniProt P02671+P02675+P02679); details: ref [15]; cited from earlier work
T2 sequence (P02671 36-866 limits assumed): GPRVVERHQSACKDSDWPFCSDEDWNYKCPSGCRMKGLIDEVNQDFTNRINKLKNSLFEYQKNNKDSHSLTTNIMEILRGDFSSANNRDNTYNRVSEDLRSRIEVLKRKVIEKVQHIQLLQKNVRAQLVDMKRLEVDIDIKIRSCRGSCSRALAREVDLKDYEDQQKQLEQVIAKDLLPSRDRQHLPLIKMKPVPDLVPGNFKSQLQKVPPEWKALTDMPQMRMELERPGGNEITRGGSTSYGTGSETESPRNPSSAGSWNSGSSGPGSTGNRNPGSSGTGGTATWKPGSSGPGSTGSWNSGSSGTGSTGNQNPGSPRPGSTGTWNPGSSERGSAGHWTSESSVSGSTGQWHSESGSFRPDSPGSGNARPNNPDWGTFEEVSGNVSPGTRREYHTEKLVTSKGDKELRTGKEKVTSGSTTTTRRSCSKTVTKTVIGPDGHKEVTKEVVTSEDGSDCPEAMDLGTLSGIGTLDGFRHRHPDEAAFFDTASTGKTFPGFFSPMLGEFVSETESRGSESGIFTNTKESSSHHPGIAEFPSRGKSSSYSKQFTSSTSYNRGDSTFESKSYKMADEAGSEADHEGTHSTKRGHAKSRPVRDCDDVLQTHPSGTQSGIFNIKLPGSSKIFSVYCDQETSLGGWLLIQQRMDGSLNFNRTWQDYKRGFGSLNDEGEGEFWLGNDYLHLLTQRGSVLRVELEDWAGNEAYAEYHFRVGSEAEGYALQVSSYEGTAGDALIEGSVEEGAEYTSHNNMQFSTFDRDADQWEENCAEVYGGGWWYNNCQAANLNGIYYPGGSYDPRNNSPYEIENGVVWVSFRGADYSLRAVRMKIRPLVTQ
T2 sequence (P02675 45-491 limits assumed): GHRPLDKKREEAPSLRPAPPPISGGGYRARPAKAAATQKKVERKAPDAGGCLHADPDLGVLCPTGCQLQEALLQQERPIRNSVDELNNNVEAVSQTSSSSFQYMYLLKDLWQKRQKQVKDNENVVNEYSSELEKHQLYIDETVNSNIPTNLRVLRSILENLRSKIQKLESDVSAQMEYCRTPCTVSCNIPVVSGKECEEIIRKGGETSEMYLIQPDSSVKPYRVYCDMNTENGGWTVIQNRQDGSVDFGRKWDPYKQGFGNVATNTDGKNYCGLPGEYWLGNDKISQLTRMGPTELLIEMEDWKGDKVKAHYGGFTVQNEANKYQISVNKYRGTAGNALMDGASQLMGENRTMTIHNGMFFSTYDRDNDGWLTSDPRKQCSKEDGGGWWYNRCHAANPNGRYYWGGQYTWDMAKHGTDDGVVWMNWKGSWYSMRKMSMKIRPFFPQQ
T2 sequence (P02679 27-433 limits assumed): T1 sequence (P02679 27-433 limits assumed)

fibrin [2] = target: T2, fibrin; assay: Solvent water 1H relaxation rate; assay type: physicochemical; details: 30 μM fibrin, 0.47T, 37°C

In the case of `CC[C@H](C)[C@H](NC(=O)[C@H](Cc1c[nH]c2ccccc12)NC(=O)[C@@H]1CSSC[C@H](NC(=O)[C@H](CCC(=O)O)NC(=O)[C@H](Cc2c[nH]c3ccccc23)NC(=O)[C@H](CCC(N)=O)NC(=O)CCCCCNC(=O)c2ccc3c(c2)C(=O)OC32c3ccc(O)cc3Oc3cc(O)ccc32)C(=O)N2CCC[C@H]2C(=O)N[C@@H](Cc2ccc(O)cc2)C(=O)NCC(=O)N[C@@H](CC(C)C)C(=O)N1)C(=O)N[C@@H](CCC(N)=O)C(N)=O` [Tn6-2b-Fl, Fluor-Aca-QWECPYGLCWIQ] ({5FAM-Ahx}-QWECPYGLCWIQ-NH2; disulfide 4-9), the “fibrinogen binding weaker than to DD(E)” value (fibrinogen) is reported as 400 fold.

In the case of “DTPA-GYLCGDYTLCPD-NH2 ({DTPA}-GYLCGDYTLCPD-NH2; not fully specified (bridges); cysteine pairing not given here)”, the “fibrin binding (in words)” value (fibrin [1]) is listed as “No measurable fibrin binding”.

In the case of `O=C([O-])CN(CCN(CC(=O)[O-])CC(=O)O)CCN(CC(=O)[O-])CC(=O)O.[Gd+3]` [GdDTPA, diethylenetriaminepentaaceto gadolinium(III), reference compound], the “enhancement of 1/T1 in fibrin gel compared to buffer” value (fibrin [2]) is reported as “no enhancement of 1/T1”.

From article PMC3310290 (Bioconjugate Chemistry, 2012)
